This is an account of results in paper PMC7835349 (Communications Biology, 2021).

Where “and” joins values, the source holds several entries; their conditions need not be identical. Identical values can stand only once.

One test concerns SUDHL-4 xenograft. Briefly: SUDHL-4 xenograft efficacy and survival. To be noted: Rituxan (Rtx) 10 mg/kg. Format: in vivo, C.B-17 SCID mouse. As to the method:
(§1) Female C.B.−17 SCID mice were purchased from Charles River Laboratories. Mice were 5–8 weeks old at the time of tumour implantation. All xenograft studies were conducted at our Association for the Assessment and Accreditation of Laboratory Animal Care accredited facility in Waltham, MA in accordance with ethical regulations described in the guidelines established by the internal Institutional Animal Care and Use Committee. The dendrimer conjugates were formulated in citrate/phosphate buffer pH 5.0, diluted 1:10 with 5% glucose containing 1% w/v Kolliphor HS15, and AZD4320 was formulated in 30% HP-β-CD and dosed as a weekly intravenous (IV) administration at a volume of 5 ml/kg at the indicated doses. Five million RS4;11, five million SUDHL-4 or five million OCI-LY-10 cells were injected subcutaneously in the right flank of mice in a volume of 0.1 ml. Tumour volumes (measured by caliper), animal body weight, and tumor condition were recorded twice weekly for the duration of the study. The tumour volume was calculated (taking length to be the longest diameter across the tumour and width to be the corresponding perpendicular diameter) using the formula: length (mm) x width (mm)^2/0.52. For efficacy studies, mice were randomized based on tumour volumes using stratified sampling and enrolled into control and treatment groups. Tumour growth inhibition from the start of treatment was quantified by measuring the difference in tumour volume between control and treated groups. Survival analysis was evaluated using Mantel-Cox test. Tumours were also taken for bioanalysis.

In a further test the test system is OCI-LY10 xenograft. Briefly: OCI-LY10 xenograft efficacy and survival. The format is in vivo, C.B-17 SCID mouse. The arrangement: OCI-LY10 xenograft efficacy, individual animals: unit not given here. The conditions noted are these: for OCI-LY10 xenograft efficacy, individual animals: Acalabrutinib 12.5mpk BID. As to the method: as §1

Take Rituxan (Rtx): the “SUDHL-4 xenograft efficacy, Geo Mean” value is given as 207.17 in the test with SUDHL-4 xenograft (day 1); 194.343 with SUDHL-4 xenograft (day 5); 229.272 with SUDHL-4 xenograft (day 9); 236.829 with SUDHL-4 xenograft (day 12); 277.244 in the test on SUDHL-4 xenograft (day 16); 341.784 in the test on SUDHL-4 xenograft (day 19). Moreover, the “SUDHL-4 xenograft efficacy, Geo Mean” value in the test with SUDHL-4 xenograft (day 23) came to 461.782; in the test on SUDHL-4 xenograft (day 26), 534.569; with SUDHL-4 xenograft (day 29), 692.979; in the test with SUDHL-4 xenograft (day 32), 702.104.

On to `CC#CC(=O)N1CCC[C@H]1c1nc(-c2ccc(C(=O)Nc3ccccn3)cc2)c2c(N)nccn12` [acalabrutinib, reference compound], for which the “OCI-LY10 xenograft efficacy, individual animals” value was 127 and 164 and 248 and 101 and 210 and 188 and 174 and 141 in the test with OCI-LY10 xenograft (day 18); 221 and 332 and 538 and 104 and 333 and 303 and 198 and 259 with OCI-LY10 xenograft (day 21); 299 and 256 and 495 and 88 and 284 and 527 and 334 and 162 in the test with OCI-LY10 xenograft (day 25); 232 and 311 and 519 and 141 and 436 and 334 and 361 and 191 with OCI-LY10 xenograft (day 28); 363 and 375 and 663 and 150 and 384 and 401 and 347 and 391 in the test with OCI-LY10 xenograft (day 32); 402 and 443 and 532 and 209 and 471 and 429 and 383 and 277 in the test with OCI-LY10 xenograft (day 35). The “OCI-LY10 xenograft efficacy, individual animals” value in the test on OCI-LY10 xenograft (day 39) is 393 and 553 and 891 and 198 and 472 and 366 and 578 and 547; in the test on OCI-LY10 xenograft (day 42), 405 and 474 and 589 and 106 and 385 and 656 and 416 and 224. Further, in the test on OCI-LY10 xenograft (OCI-LY10 DLBCL model), the “monotherapy activity” value is given as “neither agent showed any demonstrable monotherapy activity”.
